Experimental data reported in ChEMBL document CHEMBL4184109, “Design, synthesis, and structure-activity relationship studies of novel tetrazole antifungal agents with potent activity, broad antifungal spectrum and high selectivity” (Bioorg Med Chem Lett, 2018).
≈ marks a conversion by molar mass, not a printed value.

Experiments:
[1] = test system: Cryptococcus neoformans; test: Antifungal activity against Cryptococcus neoformans after 72 hrs by serial dilution method; assay type: functional
[2] = biological target: T1, Cytochrome P450 1A2 (Homo sapiens, UniProt P05177); test: Inhibition of CYP1A2 in human liver microsomes using phenacetin as substrate preincubated for 10 mins with substrate followed by NADPH addition measured after 15 mins by LC/MS/MS analysis; assay type: ADME
T1 sequence (P05177 whole entry): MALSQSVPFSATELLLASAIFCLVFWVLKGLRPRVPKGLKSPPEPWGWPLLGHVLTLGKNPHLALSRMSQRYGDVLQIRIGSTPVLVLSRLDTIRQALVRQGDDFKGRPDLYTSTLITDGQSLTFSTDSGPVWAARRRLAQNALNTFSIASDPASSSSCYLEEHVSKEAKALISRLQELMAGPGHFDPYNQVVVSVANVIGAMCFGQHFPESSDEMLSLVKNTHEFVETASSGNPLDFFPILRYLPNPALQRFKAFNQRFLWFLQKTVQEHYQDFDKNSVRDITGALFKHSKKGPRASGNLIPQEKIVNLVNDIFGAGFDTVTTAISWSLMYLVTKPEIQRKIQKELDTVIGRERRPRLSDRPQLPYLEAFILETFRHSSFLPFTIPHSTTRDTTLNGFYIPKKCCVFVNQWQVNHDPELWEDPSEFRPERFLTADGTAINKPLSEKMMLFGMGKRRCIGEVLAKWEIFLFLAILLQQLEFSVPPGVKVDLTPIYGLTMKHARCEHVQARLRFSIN

[3] = test system: Candida albicans; test: Antifungal activity against Candida albicans SC5314 after 24 hrs by serial dilution method; assay type: functional; conditions: SC5314, 24 h
[4] = test system: Aspergillus fumigatus; test: Antifungal activity against Aspergillus fumigatus after 48 hrs by serial dilution method; assay type: functional
[5] = test system: Candida parapsilosis; test: Antifungal activity against Candida parapsilosis ATCC 22019 after 24 hrs by serial dilution method; assay type: functional; conditions: Lodderomyces parapsilosis, ATCC 22019, 24 h
[6] = biological target: Cytochrome P450 2C9 (Homo sapiens, UniProt P11712); test: Inhibition of CYP2C9 in human liver microsomes using tolbutamide as substrate preincubated for 10 mins with substrate followed by NADPH addition measured after 15 mins by LC/MS/MS analysis; assay type: ADME
[7] = test system: Nakaseomyces glabratus; test: Antifungal activity against Candida glabrata after 24 hrs by serial dilution method; assay type: functional
[8] = test system: Trichophyton rubrum; test: Antifungal activity against Trichophyton rubrum by serial dilution method; assay type: functional
[9] = biological target: Cytochrome P450 2C19 (Homo sapiens, UniProt P33261); test: Inhibition of CYP2C19 in human liver microsomes using mephenytoin as substrate preincubated for 10 mins with substrate followed by NADPH addition measured after 15 mins by LC/MS/MS analysis; assay type: ADME
[10] = biological target: Cytochrome P450 2D6 (Homo sapiens, UniProt P10635); test: Inhibition of CYP2D6 in human liver microsomes using dextromethorphan as substrate preincubated for 10 mins with substrate followed by NADPH addition measured after 15 mins by LC/MS/MS analysis; assay type: ADME
[11] = test system: Nannizzia gypsea; test: Antifungal activity against Microsporum gypseum by serial dilution method; assay type: functional
[12] = test system: Candida albicans; test: Antifungal activity against Candida albicans Y0109 after 24 hrs by serial dilution method; assay type: functional; conditions: Y0109, 24 h
[13] = test system: Nannizzia gypsea; test: Potency index, ratio of VT-1161 MIC80 to compound MIC80 for Microsporum gypseum; assay type: functional
[14] = test system: Candida albicans; test: Potency index, ratio of VT-1161 MIC80 to compound MIC80 for Candida albicans Y0109; assay type: functional
[15] = test system: Candida albicans; test: Potency index, ratio of VT-1161 MIC80 to compound MIC80 for Candida albicans SC5314; assay type: functional
[16] = test system: Trichophyton rubrum; test: Potency index, ratio of VT-1161 MIC80 to compound MIC80 for Trichophyton rubrum; assay type: functional
[17] = test system: Candida parapsilosis; test: Potency index, ratio of VT-1161 MIC80 to compound MIC80 for Candida parapsilosis ATCC 22019; assay type: functional
[18] = test system: Cryptococcus neoformans; test: Potency index, ratio of VT-1161 MIC80 to compound MIC80 for Cryptococcus neoformans; assay type: functional
[19] = test system: Nakaseomyces glabratus; test: Potency index, ratio of VT-1161 MIC80 to compound MIC80 for Candida glabrata; assay type: functional

Chain of Cytochrome P450 2C9 (P11712 whole entry): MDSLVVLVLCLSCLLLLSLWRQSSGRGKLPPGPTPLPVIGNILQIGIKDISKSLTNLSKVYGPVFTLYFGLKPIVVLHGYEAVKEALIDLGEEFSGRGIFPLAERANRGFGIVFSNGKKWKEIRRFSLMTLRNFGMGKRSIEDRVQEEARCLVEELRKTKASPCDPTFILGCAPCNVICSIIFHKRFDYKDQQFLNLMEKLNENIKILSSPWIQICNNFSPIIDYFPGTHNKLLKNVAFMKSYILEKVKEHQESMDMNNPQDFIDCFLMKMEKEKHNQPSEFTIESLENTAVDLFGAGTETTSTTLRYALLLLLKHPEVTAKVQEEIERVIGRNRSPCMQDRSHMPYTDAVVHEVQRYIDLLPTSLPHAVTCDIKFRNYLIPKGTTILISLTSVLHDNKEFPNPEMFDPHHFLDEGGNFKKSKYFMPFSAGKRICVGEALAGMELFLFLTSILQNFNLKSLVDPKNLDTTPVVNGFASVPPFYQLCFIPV
Chain of Cytochrome P450 2D6 (P10635 whole entry): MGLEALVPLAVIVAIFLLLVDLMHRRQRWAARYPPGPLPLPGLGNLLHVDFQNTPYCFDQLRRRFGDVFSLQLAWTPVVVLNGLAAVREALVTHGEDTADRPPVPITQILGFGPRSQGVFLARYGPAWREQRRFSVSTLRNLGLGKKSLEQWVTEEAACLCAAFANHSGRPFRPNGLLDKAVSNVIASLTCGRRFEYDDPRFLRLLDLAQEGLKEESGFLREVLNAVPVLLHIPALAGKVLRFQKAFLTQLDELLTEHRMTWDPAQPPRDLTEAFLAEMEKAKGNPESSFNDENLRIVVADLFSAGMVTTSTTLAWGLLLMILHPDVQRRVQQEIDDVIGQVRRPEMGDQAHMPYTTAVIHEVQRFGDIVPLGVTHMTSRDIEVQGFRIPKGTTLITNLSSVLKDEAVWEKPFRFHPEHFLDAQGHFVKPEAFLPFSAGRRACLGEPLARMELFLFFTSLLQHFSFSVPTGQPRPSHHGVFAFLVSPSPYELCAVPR
Chain of Cytochrome P450 2C19 (P33261 whole entry): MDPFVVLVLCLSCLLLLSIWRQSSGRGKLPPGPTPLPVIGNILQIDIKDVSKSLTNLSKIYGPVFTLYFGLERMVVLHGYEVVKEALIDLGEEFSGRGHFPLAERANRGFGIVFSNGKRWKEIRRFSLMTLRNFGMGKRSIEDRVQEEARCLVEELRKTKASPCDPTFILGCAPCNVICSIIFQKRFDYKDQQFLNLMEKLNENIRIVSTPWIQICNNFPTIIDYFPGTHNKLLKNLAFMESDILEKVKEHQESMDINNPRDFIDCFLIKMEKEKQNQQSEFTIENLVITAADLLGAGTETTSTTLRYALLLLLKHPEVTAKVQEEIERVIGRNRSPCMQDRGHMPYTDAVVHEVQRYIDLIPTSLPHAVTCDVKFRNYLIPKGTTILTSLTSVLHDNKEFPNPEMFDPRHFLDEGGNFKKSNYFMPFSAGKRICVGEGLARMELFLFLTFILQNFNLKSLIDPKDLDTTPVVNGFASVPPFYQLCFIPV

MIC80 [1] [µg/mL]	IC50 [2] [µM]	MIC80 [3] [µg/mL]	MIC80 [4] [µg/mL]	MIC80 [5] [µg/mL]	IC50 [6] [µM]	MIC80 [7] [µg/mL]	MIC80 [8] [µg/mL]	IC50 [9] [µM]	IC50 [10] [µM]	MIC80 [11] [µg/mL]	MIC80 [12] [µg/mL]	Compound	Ratio [13]	Ratio [14]	Ratio [15]	Ratio [16]	Ratio [17]	Ratio [18]	Ratio [19]
0.125 (≈ 0.241 µM)	14.5	0.25 (≈ 0.482 µM)	> 64	0.25 (≈ 0.482 µM)	16.5	0.25 (≈ 0.482 µM)	2 (≈ 3.86 µM)	14.6	21.1	4 (≈ 7.71 µM)	0.25 (≈ 0.482 µM)	O=c1n(-c2ccc(C(F)(F)C(O)(Cn3cnnn3)c3ccc(F)cc3F)nc2)cnn1C1CCCCC1 (stereo not given)							
0.5 (≈ 0.987 µM)	25	0.5 (≈ 0.987 µM)	> 64	0.5 (≈ 0.987 µM)	25	1 (≈ 1.97 µM)	2 (≈ 3.95 µM)	20	7.7	4 (≈ 7.9 µM)	0.25 (≈ 0.494 µM)	CC(C)(C)Cn1ncn(-c2ccc(C(F)(F)C(O)(Cn3cnnn3)c3ccc(F)cc3F)nc2)c1=O (stereo not given)	2 - 4	2 - 4	2 - 4	2 - 4	2 - 4	2 - 4	2 - 4
1 (≈ 1.9 µM)	28.9	1 (≈ 1.9 µM)	> 8	0.5 (≈ 0.948 µM)	11.5	2 (≈ 3.79 µM)	2 (≈ 3.79 µM)	8.5	8.7	8 (≈ 15.2 µM)	1 (≈ 1.9 µM)	OC(Cn1cnnn1)(c1ccc(F)cc1F)C(F)(F)c1ccc(-c2ccc(OCC(F)(F)F)cc2)cn1 (racemic)							
1 (≈ 1.98 µM)	22.6	0.25 (≈ 0.496 µM)	> 8	0.125 (≈ 0.248 µM)	11.9	2 (≈ 3.96 µM)	4 (≈ 7.93 µM)	17	10.8	16 (≈ 31.7 µM)	0.25 (≈ 0.496 µM)	O=c1n(-c2ccc(C(F)(F)C(O)(Cn3cnnn3)c3ccc(F)cc3F)nc2)cnn1C1CCCC1 (stereo not given)							
